These are literature values, as cited in patent US20080312310A1, “Compounds, Compositions and Methods” (Cytokinetics, Inc., priority 2002, published 2008).

The data set deals with A549 cells. To be noted: data provided by National Cancer Institute, Developmental Therapeutic Program.

Usually GI50 stands for the concentration at which growth is held to half of that of the control. Take `O=c1[nH]cc(F)c(=O)[nH]1` [5-fluorouracil]: the GI50 is 1000 nM.
In the case of `COc1cccc2c1C(=O)c1c(O)c3c(c(O)c1C2=O)C[C@@](O)(C(=O)CO)C[C@@H]3O[C@H]1C[C@H](N)[C@H](O)[C@H](C)O1` [doxorubicin], the GI50 is 63 nM.
As to `NC(=O)NO` [hydroxyurea], the concentration for 50% growth inhibition (GI50) is 500000 nM.
For `CC(=O)O[C@H]1C(=O)[C@@]2(C)[C@H]([C@H](OC(=O)c3ccccc3)[C@]3(O)C[C@H](OC(=O)[C@H](O)[C@@H](NC(=O)c4ccccc4)c4ccccc4)C(C)=C1C3(C)C)[C@]1(OC(C)=O)CO[C@@H]1C[C@@H]2O` [paclitaxel], the GI50 is 4 nM.
